Reference: ChEMBL document CHEMBL3632522, “Novel 3,4-methylenedioxyde-6-X-benzaldehyde-thiosemicarbazones: Synthesis and antileishmanial effects against Leishmania amazonensis” (Eur J Med Chem, 2015)
Active and inactive are the calls of the source. The calls are words filed in the database; no cut-off is given here.

Experiments:
[1] = Cytotoxicity against BALB/c mouse peritoneal macrophages assessed as cell viability after 72 hrs by resazurin assay; format: cell-based, Peritoneal macrophage cell; settings: read-out: LD50
Leishmania amazonensis [2] = assay: Antileishmanial activity against Leishmania amazonensis Leishmania amazonensis MHOM/BR/77/LTB0016 intracellular amastigotes infected in BALB/c mouse macrophages at 12.5 to 100 uM incubated for 72 hrs by optical microscopy; format: functional, organism-based
Leishmania amazonensis [3] = assay: Antileishmanial activity against Leishmania amazonensis Leishmania amazonensis MHOM/BR/77/LTB0016 intracellular amastigotes infected in BALB/c mouse macrophages incubated for 72 hrs by microscopy; format: functional, organism-based; settings: MHOM/BR/77/LTB0016, 72 h
Leishmania amazonensis [4] = assay: Antileishmanial activity against Leishmania amazonensis MHOM/BR/77/LTB0016 assessed as inhibition of parasite growth incubated for 72 hrs by MTT assay; format: functional, organism-based; settings: for IC50: MHOM/BR/77/LTB0016, 72 h
[5] = Cytotoxicity against BALB/c mouse peritoneal macrophages infected with Leishmania amazonensis MHOM/BR/77/LTB0016 intracellular amastigotes assessed as cell viability at 12.5 to 100 uM after 72 hrs by resazurin staining based optical microscopy; settings: peritoneal macrophage cell
[6] = Selectivity index, ratio of LD50 for BALB/c mouse peritoneal macrophages to IC50 for Leishmania amazonensis MHOM/BR/77/LTB0016 intracellular amastigotes infected in BALB/c mouse peritoneal macrophages

With N#Cc1cc2c(cc1/C=N/NC(N)=S)OCO2 the CC50 at 72 h [1] was over 125 µM, the Activity (Leishmania amazonensis [2]) was “Active” and the IC50 (Leishmania amazonensis [3]) was 17 µM. For the same compound, the inhibition (Leishmania amazonensis [4]) was “Dose-dependent effect”, the IC50 (Leishmania amazonensis [4]) was 16.4 µM and the Activity [5] was “Non-toxic”. For the same compound, the “Ratio LD50/IC50” value [6] was over 7.4.
With NC(=S)N/N=C/c1cc2c(cc1I)OCO2 the CC50 at 72 h [1] was over 125 µM, the Activity (Leishmania amazonensis [2]) was “Active” and the IC50 (Leishmania amazonensis [3]) was 22 µM. For the same compound, the inhibition (Leishmania amazonensis [4]) was “Dose-dependent effect”, the IC50 (Leishmania amazonensis [4]) was 20.7 µM and the Activity [5] was “Non-toxic”. For the same compound, the “Ratio LD50/IC50” value [6] was over 5.7.
In the case of NC(=S)N/N=C/c1cc2c(cc1Cl)OCO2, the inhibition (Leishmania amazonensis [4]) is reported as “Dose-dependent effect” and the IC50 (Leishmania amazonensis [4]) is reported as 244 µM.
In the case of NC(=S)N/N=C/c1ccc2c(c1)OCO2, the inhibition (Leishmania amazonensis [4]) is reported as “Dose-dependent effect” and the IC50 (Leishmania amazonensis [4]) is reported as 79.7 µM.
In the case of NC(=S)N/N=C/c1cc2c(cc1N)OCO2, the inhibition (Leishmania amazonensis [4]) is reported as “Dose-dependent effect” and the IC50 (Leishmania amazonensis [4]) is reported as 119 µM.
For NC(=S)N/N=C/c1cc2c(cc1NC(=O)CCl)OCO2, the inhibition (Leishmania amazonensis [4]) was “Dose-dependent effect” and the IC50 (Leishmania amazonensis [4]) was 256 µM.
For NC(=S)N/N=C/c1cc2c(cc1O)OCO2, the inhibition (Leishmania amazonensis [4]) was “Dose-dependent effect” and the IC50 (Leishmania amazonensis [4]) was 53 µM.
With NC(=S)N/N=C/c1cc2c(cc1[N+](=O)[O-])OCO2 the inhibition (Leishmania amazonensis [4]) was “Dose-dependent effect” and the IC50 (Leishmania amazonensis [4]) was 271 µM.
In the case of NC(=S)N/N=C/c1cc2c(cc1F)OCO2, the inhibition (Leishmania amazonensis [4]) is reported as “Dose-dependent effect” and the IC50 (Leishmania amazonensis [4]) is reported as 197 µM.
With N=C(N)c1ccc(OCCCCCOc2ccc(C(=N)N)cc2)cc1 [PENTAMIDINE] the CC50 at 72 h [1] was 8.5 µM, the IC50 (Leishmania amazonensis [3]) was 1.9 µM and the inhibition (Leishmania amazonensis [4]) was “Dose-dependent effect”. The IC50 (Leishmania amazonensis [4]) was 4.8 µM and the “Ratio LD50/IC50” value [6] was 4.5.
For NC(=S)N/N=C/c1cc2c(cc1Br)OCO2, the inhibition (Leishmania amazonensis [4]) was “Dose-dependent effect” and the IC50 (Leishmania amazonensis [4]) was 202 µM.
